Laboratory results: patent US20070238756A1, “COMBINATIONS OF DIPEPTIDYL PEPTIDASE IV INHIBITORS AND OTHER ANTIDIABETIC AGENTS FOR THE TREATMENT OF DIABETES MELLITUS” (priority 2000, published 2007)

Columns and labels:
DPP-IV = target: T1, DPP-IV (Rattus norvegicus, UniProt P14740); assay: Plasma DPP-IV activity in treated ZDF rats (Gly-Pro-AMC fluorogenic substrate); type: in vivo; details: male ZDF fa/fa rats, oral gavage BID for 7 days; Compound (I) 5 mg/kg, Compound (II) 100 mg/kg, combination of both doses; n=6; control 5544 ± 485
T1 construct: from tissue; host or cells: plasma of treated male ZDF fa/fa rats
Description: DPP-IV activity was measured using the fluorogenic substrate Gly-Pro-AMC ([…]) according to the manufacturer's specification (Enzyme System Products, Livermore Calif.). The substrate was mixed with 50 mM Tris, pH 7.8, in plasma (20% final v/v) and the samples were incubated for 5-20 min at 30 °C. DPP-IV activity was determined by measuring fluorescence using a cytofluor spectrofluoremeter with the filters set at 360 nm excitation and 460 nm emission.

male ZDF fa/fa rats [1] = assay: % HbA1C 7 day change in ZDF rats; type: in vivo, rat; details: oral gavage BID for 7 days, Compound (I) 5 mg/kg, Compound (II) 100 mg/kg, combination of both doses, n=6, control 1.63 ± 1.12
Description: Age and weight matched male ZDF fa/fa rats (Genetic Models, Inc., Indianapolis, Ind.) were housed individually at 72° F. and 50% relative humidity with a 12 h light/dark cycle and fed PMI 5008 Formulab Diet (PMI Nutrition International, Saint Louis, Mo.).
(§1) Rats were anesthetized with isofluorane for cardiac blood collection 30 minutes after administration of the glucose solution. Serum chemistry measurements were obtained using an automated chemistry analyzer (ILab600, Instrument Laboratory, Lexington, Mass.).
Results from each group (n=6) were averaged and compared to vehicle treated rats to determine significance and are shown in Table I.

male ZDF fa/fa rats [2] = assay: Glucose tolerance test, plasma glucose 30 min after intraperitoneal glucose, in ZDF rats; type: in vivo, rat; details: oral gavage BID for 7 days, i.p. glucose 30 min after last dose, blood 30 min after glucose, Compound (I) 5 mg/kg, Compound (II) 100 mg/kg, combination of both doses, n=6, control 695 ± 24
Description: For glucose tolerance measurements, rats were treated with test compound for 7 days and given an intraperitoneal injection of a glucose solution in saline 30 minutes after the last dose of test compound.
as §1

T1 sequence (P14740 37-767 limits assumed): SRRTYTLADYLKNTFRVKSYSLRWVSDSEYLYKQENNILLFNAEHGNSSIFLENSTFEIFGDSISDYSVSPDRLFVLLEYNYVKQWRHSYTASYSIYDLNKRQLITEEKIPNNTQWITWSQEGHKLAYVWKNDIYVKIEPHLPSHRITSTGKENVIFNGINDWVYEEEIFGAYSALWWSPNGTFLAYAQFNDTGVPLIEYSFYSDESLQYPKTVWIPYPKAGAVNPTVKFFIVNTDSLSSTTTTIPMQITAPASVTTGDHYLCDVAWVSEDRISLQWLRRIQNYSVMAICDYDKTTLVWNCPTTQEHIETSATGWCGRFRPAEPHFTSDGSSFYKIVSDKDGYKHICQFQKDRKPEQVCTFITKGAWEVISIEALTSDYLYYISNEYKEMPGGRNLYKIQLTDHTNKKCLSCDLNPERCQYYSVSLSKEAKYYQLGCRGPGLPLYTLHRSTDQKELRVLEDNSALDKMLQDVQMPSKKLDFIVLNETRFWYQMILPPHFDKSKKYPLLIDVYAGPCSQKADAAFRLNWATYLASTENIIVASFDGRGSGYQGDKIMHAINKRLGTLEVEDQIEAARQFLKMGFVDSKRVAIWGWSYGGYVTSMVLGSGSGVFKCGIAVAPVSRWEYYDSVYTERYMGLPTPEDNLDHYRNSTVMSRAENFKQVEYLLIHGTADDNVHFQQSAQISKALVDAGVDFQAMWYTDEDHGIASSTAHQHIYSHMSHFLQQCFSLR

Plasma DPP-IV activity (DPP-IV)	SMILES	% HbA1C (7 day change) (male ZDF fa/fa rats [1]) [%]	Plasma Glucose (30 min GTT) (male ZDF fa/fa rats [2])
4104 ± 399	CN(CCOc1ccc(CC2SC(=O)NC2=O)cc1)c1ccccn1 (centres unmarked) [Compound (I), 5-[4-[2-(N-methyl-N-(2-pyridyl)amino)ethoxy]benzyl]thiazolidine-2,4-dione]	0.79 ± 0.54	665 ± 40
	CC[C@H](C)[C@H](N)C(=O)N1CCSC1 [Compound (II), isoleucine thiazolidide]	1.81 ± 1.24	684 ± 60
